# Tests used:
# DENV-2/Rega lab strain [1] = assay: AG129 mouse viremia model, high viral input (10^6 PFU), pre-exposure prophylaxis; format: in vivo, AG129 mice; settings: day 3 p.i.; for viral load reduction in serum / median viral load reduction in serum: 10^6 PFU, vs vehicle
# Excerpt: The AG129 mouse model is a well-established model to study the antiviral effect of compounds against DENV in vivo (Zompi and Harris, 2012). These 129/Sv mice are deficient for both IFN-α/β and IFN-γ receptors, enabling peripheral viral replication upon intravenous (i.v.) or subcutaneous (s.c.) infection with DENV (Johnson and Roehrig, 1999). […]
# Total RNA from serum was extracted using the NucleoSpin RNA virus kit according to the manufacturer's protocol (Macherey-Nagel, Düren, Germany). The viral RNA load was determined by one-step TaqMan RT-qPCR (master mix from Eurogentec, Seraing, Belgium). […]
# In a similar setup as for the b.i.d. dosing studies, the in vivo efficacy was studied in the AG129 standard viremia model against DENV-2 with high viral inoculum and with compound (a) q.d. administration. Animals were i.p. infected with 10^6 PFU DENV-2/Rega lab strain in a volume of 200 μL. Animals were treated by administering compound (a) by oral gavage with a first administration at one hour prior to infection. The treatment continued for three consecutive days with one administration of compound (a) every 24 hours (once a day or q.d.). At day 3 post infection (p.i.), the mice were euthanized, and blood was collected (FIG. 3). The viral RNA load was determined as outlined in example 1.
# The mice were divided in 5 groups (n=8/group) representing the following treatment regimens: • (i) Vehicle 80%/20% PEG400/H2O, • (ii) reference compound (2′CMC, 50 mg/kg per dose, b.i.d., s.c.), • (iii) compound (a): 0.3 mg/kg/dose q.d. • (iv) compound (a): 3 mg/kg/dose q.d. • (v) compound (a): 30 mg/kg/dose q.d. […]
# (§1) The mice were divided in several groups (n=8/group for the viremia study and n=10/group for the survival study) representing the following treatment regimens: • (i) vehicle, 80%/20% PEG400/H2O • (ii) compound (b): 30 mg/kg/dose b.i.d. • (iii) compound (b): 10 mg/kg/dose b.i.d. • (iv) compound (b): 3 mg/kg/dose b.i.d. • (v) compound (b): 1 mg/kg/dose b.i.d.
# DENV-2/Rega lab strain [2] = assay: AG129 mouse viremia model, low viral input (10^2 PFU), viral load kinetics, pre-exposure prophylaxis; format: in vivo, AG129 mice; settings: for median serum viral load over all 11 days: LOD=2.59 log10 copies/mL
# Method: In this experiment, lower viral inputs were used (10^2 PFU), compared with the standard viremia experiments with a high viral input (10^6 PFU). 10^2 PFU was selected as it was the lowest viral load leading to a Dengue infection in the mouse model. Using a lower viral input still results in 100% infection of the mice, but the peak viral load is postponed with 1 to 2 days, which more closely mimics a natural human infection (Clapham et al., 2014 and Sim et al., 2015). The mice were treated during 6 consecutive days.
# Animals were infected i.p. with 10^2 PFU DENV-2/Rega lab strain and treated for six consecutive days twice daily with compound (a) by oral gavage (FIG. 5).
# The mice were divided in four treatment groups (n=16/group) representing the following treatment regimens: • (i) Vehicle 80%/20% PEG400/H2O, • (ii) compound (a): 10 mg/kg/dose b.i.d. p.o. • (iii) compound (a): 1 mg/kg/dose b.i.d. p.o. • (iv) compound (a): 0.1 mg/kg/dose b.i.d. p.o.
# Daily blood samples were collected to follow the viral load over time. Blood collection, for viral RNA load detection, was performed in two alternating sub-groups of mice. Each sub-group comprised half of the mice (n/2=8) from each of the treatment groups (i) to (iv). Blood was collected from a first sub-group at day 1, 3, 5 and 8 p.i. and from a second sub-group at day 2, 4, 6 and 11 p.i. At day 8 p.i., mice of the first sub-group were sacrificed while those of the second sub-group were sacrificed at day 11 p.i. […]
# Alternating sub-groups were used to enable daily blood collections. Blood for viral RNA load detection was collected from mice in two alternating sub-groups. Each sub-group comprised half of the mice (n/2=8) from each of the treatment groups (i-vi). Blood was collected from a first sub-group at days 1, 3, 5 and 8 p.i. and from a second sub-group at days 2, 4, 6 and 11 p.i. Blood collection was always performed just before the next administration of the compound. At day 8 p.i., half of the mice in each treatment group (n=8/group) were sacrificed. The remaining mice in each treatment group (n=8/group) were sacrificed at day 11 p.i (FIG. 16 Y).
# DENV-2 Rega lab strain = assay: Lethal DENV challenge study (survival study) in AG129 mice with 4G2 antibody-dependent enhancement; format: in vivo; settings: monitored max. 25 days, 10^6 PFU
# Method: In the lethal DENV challenge study (or survival study), antibody-dependent-enhancement (ADE) induced dengue disease is imitated by injecting AG129 mice (n=10 per group) i.p. with Anti-Flavivirus Group Antigen Antibody, clone D1-4G2-4-15 (‘4G2’; Millipore), one day prior to challenge with DENV-2 Rega lab strain (1×10^6 PFU, i.p.). Animals were treated by administering compound (b) by oral gavage with a first administration at one hour prior to infection. The treatment continued for five consecutive days with one administration of compound (b) every 12 hours (twice daily or b.i.d.). (FIG. 15X).
# as §1
# Next, the impact of compound (b) was assessed on virus-induced disease and mortality when dosed (orally, b.i.d.) for just 5 consecutive days starting at the day of infection (survival study). Animals were monitored for a maximum period of 25 days. All but one (19 of 20) vehicle-treated mice had to be euthanized. At a dose of 30 mg/kg, 90% of the mice survived the viral challenge and at doses of 10, 3 and 1 mg/kg, the survival rate was respectively 80%, 85% and 75% (FIG. 15Z).
compound,measurement,setting,value
COc1cc(NC(C(=O)c2c[nH]c3ccc(OC(F)(F)F)cc23)c2ccc(Cl)cc2OC)cc(S(C)(=O)=O)c1 (stereo not shown) [compound (a)],viral load reduction in serum,DENV-2/Rega lab strain [1]; 0.1 mg/kg/dose b.i.d. p.o.,0.47 log10 copies/mL
same,median viral load reduction in serum,DENV-2/Rega lab strain [1]; 0.3 mg/kg/dose q.d. p.o.,0.7 log10 copies/mL
same,median viral load reduction in serum,DENV-2/Rega lab strain [1]; 3 mg/kg/dose q.d. p.o.,3.1 log10 copies/mL
same,viral load reduction in serum,DENV-2/Rega lab strain [1]; 30 mg/kg/dose b.i.d. p.o.,4.4 log10 copies/mL
same,median viral load reduction in serum,DENV-2/Rega lab strain [1]; 30 mg/kg/dose q.d. p.o.,4.5 log10 copies/mL
same,"viral load reduction in serum compared with the vehicle-treated group, significance","DENV-2/Rega lab strain [1]; all doses except 0.1 (0.3, 1, 3, 10, 30 mg/kg/dose b.i.d.), p<0.001",significant viral load reduction
same,delay of peak viral load versus vehicle,"DENV-2/Rega lab strain [2]; 0.1 mg/kg/dose b.i.d. p.o., 6 days, 10^2 PFU",~ 1 day
same,viral load reduction compared with vehicle,"DENV-2/Rega lab strain [2]; 0.1 mg/kg/dose b.i.d. p.o., day 5, 10^2 PFU",0.50 log10 copies/mL
same,viral load over time,"DENV-2/Rega lab strain [2]; 0.1 mg/kg/dose q.d. p.o., 10^2 PFU",comparable to the vehicle-treated viral load curve
same,viral load reduction compared to vehicle-treated mice,"DENV-2/Rega lab strain [2]; 0.3 mg/kg/dose q.d. p.o., day 5, 10^2 PFU",1.6 log10 copies/mL
same,course of viral load after day 5,"DENV-2/Rega lab strain [2]; 0.3 mg/kg/dose q.d. p.o., up to day 11, 10^2 PFU",no further decline in viral load up to day 11
same,median serum viral load over all 11 days,"DENV-2/Rega lab strain [2]; 0.6 mg/kg/dose q.d. p.o., 6 days, 10^2 PFU",undetectable levels
same,viral load in the mice over all the days,"DENV-2/Rega lab strain [2]; 1 mg/kg/dose b.i.d. p.o., 6 days, 10^2 PFU",undetectable levels
same,median serum viral load over all 11 days,"DENV-2/Rega lab strain [2]; 1 mg/kg/dose q.d. p.o., 6 days, 10^2 PFU, 1 viral rebound at day 8",undetectable levels
same,median viral load at viral rebound,"DENV-2/Rega lab strain [2]; 1 mg/kg/dose q.d. p.o., day 8, 10^2 PFU",3.78 log10 copies/mL
same,median serum viral load over all 11 days,"DENV-2/Rega lab strain [2]; 3 mg/kg/dose q.d. p.o., 6 days, 10^2 PFU",undetectable levels
same,viral load in the mice over all the days,"DENV-2/Rega lab strain [2]; 10 mg/kg/dose b.i.d. p.o., 6 days, 10^2 PFU",undetectable levels
same,median serum viral load over all 11 days,"DENV-2/Rega lab strain [2]; 10 mg/kg/dose q.d. p.o., 6 days, 10^2 PFU",undetectable levels
same,median serum viral load over all 11 days,"DENV-2/Rega lab strain [2]; 30 mg/kg/dose q.d. p.o., 6 days, 10^2 PFU",undetectable levels
COc1cc(NC(C(=O)N2CCc3ccc(OC(F)(F)F)cc32)c2ccc(Cl)cc2)cc(OCCCC(=O)O)c1 (stereo not shown) [compound (b)],viral load reduction in serum,DENV-2/Rega lab strain [1]; compound (b) 1 mg/kg per dose b.i.d. p.o.,0.70 log10 copies/mL
same,viral load reduction in serum,DENV-2/Rega lab strain [1]; compound (b) 30 mg/kg per dose b.i.d. p.o.,3.8 log10 copies/mL
same,"viral load reduction compared with the vehicle-treated group, significance","DENV-2/Rega lab strain [1]; compound (b), all four doses (1, 3, 10, 30 mg/kg per dose b.i.d.), p<0.05",significant viral load reduction
same,reduction of viral RNA levels at peak viremia,"DENV-2/Rega lab strain [2]; compound (b) 0.3 mg/kg b.i.d. p.o., 10^2 PFU",0.8 log10
same,reduction of viral RNA levels at peak viremia,"DENV-2/Rega lab strain [2]; compound (b) 1 mg/kg b.i.d. p.o., 10^2 PFU",1.8 log10
same,viral RNA levels in serum,"DENV-2/Rega lab strain [2]; compound (b) 3 mg/kg/dose b.i.d. p.o., 6 days, 10^2 PFU",undetectable levels
same,viral RNA levels in serum,"DENV-2/Rega lab strain [2]; compound (b) 10 mg/kg/dose b.i.d. p.o., 6 days, 10^2 PFU",undetectable levels
same,viral RNA levels in serum,"DENV-2/Rega lab strain [2]; compound (b) 30 mg/kg/dose b.i.d. p.o., 6 days, 10^2 PFU",undetectable levels
same,survival rate,DENV-2 Rega lab strain; 1 mg/kg b.i.d. orally for 5 days,75%
same,survival rate,DENV-2 Rega lab strain; 3 mg/kg b.i.d. orally for 5 days,85%
same,survival rate,DENV-2 Rega lab strain; 10 mg/kg b.i.d. orally for 5 days,80%
same,survival rate,DENV-2 Rega lab strain; 30 mg/kg b.i.d. orally for 5 days,90%
